Legend:
[1] = test system: mixed cortical and striatal neurons; assay: MTS assay (cell viability) in neuronal cell culture; format: cell-based
Procedure: Neuronal Cell Culture. Mixed cortical and striatal neurons fromembryonic day 17 male Sprague-Dawley rats (tissue obtained from NIH) were seeded into poly-D-lysine coated 96-well plates at density of 50,000 cells/well and initially cultured at 37° C., 5% CO2, in neurobasal medium (NB) with B27 supplement (Invitrogen) containing full strength of AOs to obtain highly enriched (95%) neurons. Since AOs, including vitamin E, vitamin E acetate, superoxide dismutase (SOD), catalase (CAT), and GSH, are additives to culture medium, reduction of AO concentration in culture medium provides an approach to determine the level of OS involvement in a neurotoxic process. In our study, the culture medium was replaced at a 50% ratio with NB plus B27 minus AOs twice at days 7 and 9 to set AO concentrations as 50% and 25%, respectively. At 16 days in vitro (d.i.v.), a fraction of the culture medium was harvested for lactate dehydrogenase (LDH) assay, and then AO concentration was reduced to 12.5% and cultured for a further 5 hours prior to ending the experiment.
Cell Insults and Treatments. Determination of concentration for each anticancer drug in our experiments was based on its reported concentration in human cerebral spinal fluid (CSF) in chemotherapy, literature report of its neurotoxicity in culture, and our preliminary in vitro experimental data. At 13 d.i.v., the neuronal cell cultures were insulted with 100 μM of MTX (M9929, Sigma), 25 μM of 5-FU (F6627, Sigma), or 3.5 μM of CDDP (sc-200896, Santa Cruz) for 3 days in absence or presence of PAN 811.Cl.H2O. For ROS examination, the neurons were insulted with both 100 μM of MTX and 25 μM of 5-FU by 15 d.i.v. PAN-811.Cl.H2O was added to cultures to final concentrations of 1.25, 2.5, 5, and 10 μM at the same time as addition of the anticancer drugs. For cancer cell lines, the cells were insulted by the second day of cell seeding with the same concentration of MTX, 5-FU, or CDDP as used in neuronal culture in the absence or presence of 10 μM PAN-811.Cl.H2O for another 3 days.
Quantitative Assays and Morphological Assessment. Cell membrane integrity and mitochondrial function of either neurons or cancer cells were measured with LDH and 3-(4,5-dimethylthiazol-2-yl)-5-(3-carboxymethoxyphenyl)-2-(4-sulfophenyl)-2H-tetrazolium [MTS] analyses, respectively. The latter has been used to quantify cell survival. For the LDH assay, a mixture of a 35 μL aliquot of culture supernatant and 17.5 μL of Mixed Substrate, Enzyme and Dye Solutions (Sigma) was incubated at room temperature (RT) for 30 minutes. For the MTS assay, 10 μL of MTS reagent (Promega) was added to a culture well containing neurons in 50 μL of medium. The preparations were incubated at 37° C. for 2 hours. The preparations for both assays were then spectrophotometrically measured at 490 nm using a 96-well plate reader (Mode 550, Bio-Rad). Neuronal cell death was morphologically determined based on the integrity of the cell soma and continuity of neuronal processes. The change in number of cancer cells was judged directly by cell density. Cells were photographed under an inverted phase contrast microscope (IX 70, Olympus) using 10× or 20× objective.
Data Analysis. Data were generated from 4-6 replicate wells, expressed as mean±standard deviation (SD), and statistically evaluated at a significance level of 1% with one factor ANOVA or Student's t-test by using software VASSARSTATS (http://vassarstats.net/) followed by the Tukey HSD test. Figure symbols are as follows: #, P<0.05, and ##, P<0.01, compared with control; *, P<0.05, and **, P<0.01, compared with the insulted group; §§, P<0.01, compared with PAN-811 treated group by Student's t-test.

[2] = test system: intramitochondrial ROS in neurons; assay: ROS examination with DHR 123 in neurons; format: cell-based, Sprague-Dawley rats; conditions: 10 μM PAN-811; 100 μM MTX and 25 μM 5-FU; 1 day
Excerpt: Neuronal Cell Culture. […] Since AOs, including vitamin E, vitamin E acetate, superoxide dismutase (SOD), catalase (CAT), and GSH, are additives to culture medium, reduction of AO concentration in culture medium provides an approach to determine the level of OS involvement in a neurotoxic process. In our study, the culture medium was replaced at a 50% ratio with NB plus B27 minus AOs twice at days 7 and 9 to set AO concentrations as 50% and 25%, respectively. […] Cell Insults and Treatments. Determination of concentration for each anticancer drug in our experiments was based on its reported concentration in human cerebral spinal fluid (CSF) in chemotherapy, literature report of its neurotoxicity in culture, and our preliminary in vitro experimental data. […] For ROS examination, the neurons were insulted with both 100 μM of MTX and 25 μM of 5-FU by 15 d.i.v. […] ROS Examination. […] Fluorescence was photographed by using a fluorescentmicroscope and quantified by excitation at 485 nm and emission at 520 nm using a 96-well plate reader (Model 550, Bio-Rad). […] Data were generated from 4-6 replicate wells, expressed as mean±standard deviation (SD), and statistically evaluated at a significance level of 1% with one factor ANOVA or Student's t-test by using software […] […]

ribonucleotide reductase = biological target: T1, ribonucleotide reductase (Homo sapiens, UniProt P31350); conditions: cited from earlier work
T1 sequence (P31350 1-389): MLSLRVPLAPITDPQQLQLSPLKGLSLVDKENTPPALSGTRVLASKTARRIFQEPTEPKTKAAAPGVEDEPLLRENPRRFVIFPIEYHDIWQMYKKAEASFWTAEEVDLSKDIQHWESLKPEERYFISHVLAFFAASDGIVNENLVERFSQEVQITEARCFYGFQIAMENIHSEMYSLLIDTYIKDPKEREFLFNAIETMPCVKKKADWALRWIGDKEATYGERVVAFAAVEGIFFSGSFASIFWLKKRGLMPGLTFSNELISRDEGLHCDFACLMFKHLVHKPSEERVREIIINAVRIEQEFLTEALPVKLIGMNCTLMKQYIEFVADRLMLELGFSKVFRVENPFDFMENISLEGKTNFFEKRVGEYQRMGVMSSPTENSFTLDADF

[3] = test system: hypoxia-induced neuronal cell death; conditions: 1.2 μM; cited from earlier work
sodium channel = conditions: cited from earlier work
[4] = test system: staurosporine-induced apoptosis; conditions: cited from earlier work

NC(=S)N/N=C/c1ncccc1N [PAN-811, 3-aminopyridine-2-carboxaldehyde thiosemicarbazone]
inhibition of CDDP-induced MTS reduction ([1]; 10 μM PAN-811, 3.5 μM CDDP, 12.5% AO): 48%
5-FU-induced MTS reduction ([1]; 10 μM PAN-811, 25 μM 5-FU, 12.5% AO): completely blocked
5-FU- or CDDP-induced MTS reduction, dose dependence ([1]; neurons in 12.5% AO, PAN-811 1.25-10 μM): dose-dependently inhibited
suppression rate of increased ROS (DHR123) [2]: 62.3%
ability to inhibit ribonucleotide reductase (ribonucleotide reductase): inhibit
hypoxia-induced neuronal cell death [3]: completely halted
veratridine-induced sodium channel opening related to Ca2+ influx (sodium channel): prevents
staurosporine-induced apoptosis [4]: prevents

From patent publication US10525044B2, “Treatment for chemotherapy-induced peripheral neuropathy” (priority 2013, dated 2020)
